Source: patent publication US10473670B2 (University of Kentucky Research Foundation, priority 2016, dated 2019)

Columns and labels:
BON cells = assay: NT secretion from BON cells (NT EIA); type: cell-based, human
Method: FIGS. 14A-C show graphs and images illustrating that FFA activates AMPK signaling and increases NT secretion. A. Plasma NT of male C57BL/6 mice (5-mo-old, n=5) 1 h after olive oil (OO) oral gavage. *p<0.05 vs. NC; n=5. B. NT EIA (upper panels) and western blotting (lower panels) on BON cells treated with or without OA for 1 h. C. NT EIA (upper panels) and western blotting (lower panels) on QGP-1 cells treated with or without OA for 1 h. *p<0.05 vs. control; n=6. All data are mean+/-SD. FIGS. 16A-D show graphs and images illustrating Cross-talk of AMPK and mTORC1 signaling. A. Diagram of cross-talk of AMPK and mTORC1 signaling. B. Western blot analysis of BON cells treated with or without AICAR (left panel) or 1 mM AICAR and CC (10 μM) (right panel) for 3 h. C. NT EIA (upper panel) and western blotting (lower panel) on BON cells expressing control vector and myc-raptor […]/[…] treated with AICAR (1 mM) for 3 h. D. NT EIA (upper panel) and western blotting (lower panel) on BON cells expressing control vector and NTC and TSC2 siRNA treated with AICAR (1 mM) for 3 h. *p<0.05 vs. control in vector, †p<0.05 vs. AICAR in vector (C); *p<0.05 vs. control in NTC siRNA, †p<0.05 vs. control in NTC siRNA, ‡ p<0.05 vs. AICAR in NTC siRNA (D). n=6. All data are mean+/-SD. […]

QGP-1 cells = assay: NT secretion from QGP-1 cells (NT EIA); type: cell-based, human; conditions: OA 1 h
Method: FIGS. 14A-C show graphs and images illustrating that FFA activates AMPK signaling and increases NT secretion. A. Plasma NT of male C57BL/6 mice (5-mo-old, n=5) 1 h after olive oil (OO) oral gavage. *p<0.05 vs. NC; n=5. B. NT EIA (upper panels) and western blotting (lower panels) on BON cells treated with or without OA for 1 h. C. NT EIA (upper panels) and western blotting (lower panels) on QGP-1 cells treated with or without OA for 1 h. *p<0.05 vs. control; n=6. All data are mean+/−SD. Fifty μl of media were used to measure NT levels using NT EIA Kit from Phoenix Pharmaceuticals (Burlingame, Calif.) as described previously^30-33.

AMPK [1] = assay: Western blot of p-AMPK and p-ACC in BON cells; type: cell-based, human; conditions: OA 1 h
Method: (§1) FIGS. 14A-C show graphs and images illustrating that FFA activates AMPK signaling and increases NT secretion. A. Plasma NT of male C57BL/6 mice (5-mo-old, n=5) 1 h after olive oil (OO) oral gavage. *p<0.05 vs. NC; n=5. B. NT EIA (upper panels) and western blotting (lower panels) on BON cells treated with or without OA for 1 h. C. NT EIA (upper panels) and western blotting (lower panels) on QGP-1 cells treated with or without OA for 1 h. *p<0.05 vs. control; n=6. All data are mean+/−SD. Tissues and cells were lysed with lysis buffer (Cell Signaling Technology), and equal amounts of protein were resolved on 4-12% NuPAGE BisTris gels (Life Technologies) and electrophoretically transferred to polyvinylidene difluoride (PVDF) membranes; the membranes were incubated with primary antibodies overnight at 4° C. followed by secondary antibodies conjugated with horseradish peroxidase. Membranes were developed using chemiluminescence (ECL) Western Blotting System from GE Healthcare Life Science (Piscataway, N.J.) and Thermo Scientific (Waltham, Mass.).

AMPK [2] = assay: Western blot of p-AMPK and p-ACC in QGP-1 cells; type: cell-based, human; conditions: OA 1 h
Method: as §1

STC-1 cells = assay: NT release from STC-1 cells (NT EIA); type: cell-based, mouse; conditions: OA 0.25 mM, phorbol myristate acetate 100 nM
Excerpt: (§2) FIGS. 15A-B show graphs and images illustrating that FFAR1 and FFAR4 agonists increase AMPK activity. A. NT IF (left panel), NT EIA (middle panel, *p<0.05 vs. control) and western blotting (right panel) of STC-1 cells. B. Real-time PCR. GAPDH was used as the internal control (BON cell expression was arbitrarily set at 1). All data are mean+/−SD.
(§3) FFAR1 (previously known as GPR40) and FFAR4 (previously known as GPR120) are medium- to long-chain FFA G-protein-coupled receptors that have been implicated in the regulation of energy homeostasis and hormone secretion.

AMPK [3] = assay: Western blot of p-AMPK in STC-1 cells; type: cell-based, mouse; conditions: agonists 1 μM, 90 min, or OA
Excerpt: as §2, §3

AMPK [4] = assay: Western blot of p-AMPK in FHs 74 Int cells; type: cell-based, human; conditions: FHs 74 Int cells; AICAR 1 mM 2 h, oleate 0.1 mM 1 h
Method: G. Human small intestinal cells (FHs74Int) (left panel) and RIE-1 cells (right panel) were treated with the indicated concentrations of oleate for 1 h and lysates were analyzed by western blotting. […] All data are mean+/−SD. Experiments in vitro were at least repeated three times.

FHs74Int cells = assay: In vitro FA absorption (BODIPY FL C16) in FHs74Int cells; type: cell-based, human; conditions: AICAR 1 mM 3 h, BODIPY FL C16 15 min
Method: All data are mean+/−SD. Experiments in vitro were at least repeated three times.
For in vitro FA absorption or lipid accumulation studies, FHs74Int and RIE-1 cells were incubated with either bovine serum albumin (BSA) (Sigma-Aldrich) or BSA-conjugated BODIPY® FL C16 (4,4-Difluoro-5,7-Dimethyl-4-Bora-3a,4a-Diaza-s-Indacene-3-Hexadecanoic Acid) (Life Technologies) for 15 min. BSA-conjugated oleate sodium was also used to treat cells for 1 h; cells were then stained with BODIPY® 493/503 (4,4-Difluoro-1,3,5,7,8-Pentamethyl-4-Bora-3a,4a-Diaza-s-Indacene) (Life Technologies). Images were observed under an FV1000 Olympus confocal microscope with a ×60, 1.35-numerical aperture oil objective (Olympus, Tokyo, Japan). Images were analyzed with Olympus FV10-ASW2.1 software. To quantify green intensity, 3 images were taken at consistent conditions and 10 cells from each image were analyzed using the area tool. […] Cells were collected, lysed and triglyceride content was measured by Triglyceride Determination Kit (Sigma-Aldrich). All experiments were carried in serum-free medium and fatty acid-free BSA was used at 0.1%.

[5] = system: mTORC1 and ERK1/2 signaling; assay: Western blot of p-S6K1 and p-ERK1/2 in BON cells; type: cell-based, human; conditions: AICAR 3 h
Method: FIGS. 16A-D show graphs and images illustrating Cross-talk of AMPK and mTORC1 signaling. A. Diagram of cross-talk of AMPK and mTORC1 signaling. B. Western blot analysis of BON cells treated with or without AICAR (left panel) or 1 mM AICAR and CC (10 μM) (right panel) for 3 h. C. NT EIA (upper panel) and western blotting (lower panel) on BON cells expressing control vector and myc-raptor S722A/S792A treated with AICAR (1 mM) for 3 h. D. NT EIA (upper panel) and western blotting (lower panel) on BON cells expressing control vector and NTC and TSC2 siRNA treated with AICAR (1 mM) for 3 h. *p<0.05 vs. control in vector, †p<0.05 vs. AICAR in vector (C); *p<0.05 vs. control in NTC siRNA, †p<0.05 vs. control in NTC siRNA, ‡ p<0.05 vs. AICAR in NTC siRNA (D). n=6. All data are mean+/−SD.
AMPK activation inhibits mTORC1 through raptor, a component of mTORC1, or TSC2, a negative regulator of mTORC1 signaling. […] Moreover, a stable BON overexpression cell line was generated with a mutant raptor vector in which both Ser722 and Ser792 (AMPK phosphorylation sites) are replaced by alanine. […] Together, these findings further indicate the interaction of AMPK, mTORC1 and ERK signaling in the regulation of NT secretion.

SMILES | NT secretion (BON cells; OA 1 h) | NT secretion (QGP-1 cells) | phosphorylation of AMPK (p-AMPK) (AMPK [1]) | phosphorylation of acetyl-CoA carboxylase (p-ACC) (AMPK [1]) | phosphorylation of AMPK (p-AMPK) (AMPK [2]) | phosphorylation of acetyl-CoA carboxylase (p-ACC) (AMPK [2]) | NT release (STC-1 cells) | p-AMPK expression (AMPK [3]) | oleate-stimulated p-AMPK (AMPK [4]) | FA absorption (FHs74Int cells) | NT secretion (BON cells; AICAR 1 mM 3 h) | expression of p-S6K1 [5] | p-ERK1/2 [5]
CCCCCCCC/C=C\CCCCCCCC(=O)O [OA, oleic acid] | stimulated NT secretion | stimulated NT secretion | increased phosphorylation | increased phosphorylation | increased phosphorylation | increased phosphorylation | stimulated NT release | increased p-AMPK expression |  |  |  |  | 
NC(=O)c1ncn([C@@H]2O[C@H](CO)[C@@H](O)[C@H]2O)c1N [AICAR, 5-aminoimidazole-4-carboxamide-1-β-D-ribofuranoside] |  |  |  |  |  |  |  |  | further increased oleate-stimulated p-AMPK | concomitantly decreased FA absorption | stimulated NT secretion | decreased expression of p-S6K1 | increased p-ERK1/2
